In patent US11691976B2, “Coelenterazine analogues” (PROMEGA CORPORATION, priority 2018, dated 2023):

tested on: not listed separately; assay: Solubility testing in formulation, UV-Vis of supernatant vs 0.2 micron filtrate; type: physicochemical; conditions: 8.7 mM in ethanol/propylene glycol/hydroxypropyl-β-cyclodextrin/PEG 400/water (10:10:10:35:35); UV spectra of supernatant vs filtrate
Protocol: This 5× stock solution was then added to a solution of hydroxypropyl-β-cyclodextrin/water/PEG400 to give a formulation mixture of 8.7 mM in ethanol/propylene glycol/hydroxypropyl-β-cyclodextrin/PEG 400/water (10:10:10:35:35). The mixture was vortexed and centrifuged. Supernatant was sampled and measured in a UV-Vis spectrometer. The mixture was filtered through a 0.2 micron syringe filter and the filtrate was measured and compared to the supernatant.
Shown in FIG. 1 are UV spectra of JRW-1040 in the formulation, comparing supernatant and filtrate. The two UV spectra are superimposed, showing JRW-1040 is fully soluble in the formulation. Shown in FIG. 2 is the same experiment with furimazine. […] This is an example showing improvements in solubility compared to furimazine.

Compound | Solubility in the formulation
O=c1c(Cc2cccs2)nc2c(Cc3ccccc3)[nH]c(-c3cccc(O)c3)cn1-2 [JRW-1040, 8-benzyl-6-(3-hydroxyphenyl)-2-(thiophen-2-ylmethyl)imidazo[1,2-a]pyrazin-3(7H)-one] | fully soluble
O=c1c(Cc2ccco2)nc2c(Cc3ccccc3)[nH]c(-c3ccccc3)cn1-2 [Furimazine, 8-benzyl-2-(furan-2-ylmethyl)-6-phenylimidazo[1,2-a]pyrazin-3(7H)-one, reference compound] | not fully soluble

molecular target: NANOLUC® Luciferase (Oplophorus gracilirostris, UniProt Q9GV45, A31E/A60N/A81I/F95D/I117V/K70R/L54V/L99Q/M102K/N193R/P142E/Q151K/Q38R/Q45L/V71I/Y165I); assay: Luminescence assay: substrate titration with purified NANOLUC Luciferase (RLU, signal half-life, Km); type: biochemical; conditions: 100 μM substrate; initial light output three minutes after substrate addition; relative to furimazine set to 1.0
Protocol: Each compound to be screened was dissolved in DMSO (5 mM) and then further diluted to 100 μM in NANO-GEO® Luciferase Assay Buffer. A two-fold dilution series was prepared for each substrate by serially diluting 500 μl of the substrate solution with 500 μl of NANO-GLO® Luciferase Assay Buffer. Each diluted substrate titration was then combined in equal volumes with purified NANOLUC® Luciferase diluted into CO2 independent media+10% FBS. Initial light output for each substrate was measured in a GLOMAX®-Multi+ luminometer three minutes after substrate addition and then at five minute intervals as a means to determine signal half-life. Signal half-life was calculated using GraphPad Prism One Phase Decay regression and Km and Vmax were calculated using GraphPad Prism using Michaelis-Menten regression.
The synthesized coelenterazine analogues (compounds of formula (I) and (II)) were evaluated for their suitability as luciferase substrates. NANOLUC® luciferase was employed for the screening because it is a small (19 kDa), stable, and particularly bright enzyme. […] RLU, half-life, and Km values are for furimazine is set to 1.0. […]

NANOLUC® Luciferase, sequence (Q9GV45 28-196 with tags or gaps with the stated changes limits assumed): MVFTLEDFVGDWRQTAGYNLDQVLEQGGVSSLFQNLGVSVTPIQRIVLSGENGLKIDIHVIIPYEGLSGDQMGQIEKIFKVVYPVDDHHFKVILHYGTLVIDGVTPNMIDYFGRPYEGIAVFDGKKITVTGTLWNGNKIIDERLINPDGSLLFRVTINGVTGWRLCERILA

Compound | RLU (@100 μM)
O=c1c(Cc2cccs2)nc2c(Cc3ccccc3)[nH]c(-c3cccc(O)c3)cn1-2 [JRW-1040, 8-benzyl-6-(3-hydroxyphenyl)-2-(thiophen-2-ylmethyl)imidazo[1,2-a]pyrazin-3(7H)-one] | 0.8
Cc1c(N)cccc1-c1cn2c(=O)c(Cc3ccco3)nc-2c(Cc2ccccc2)[nH]1 [JRW-1642, 6-(3-amino-2-methylphenyl)-8-benzyl-2-(furan-2-ylmethyl)imidazo[1,2-a]pyrazin-3(7H)-one] | 0.04
O=c1c(Cc2ccc(F)cc2)nc2c(Cc3ccccc3)[nH]c(-c3cccc(O)c3)cn1-2 [JRW-0786, 8-benzyl-2-(4-fluorobenzyl)-6-(3-hydroxyphenyl)imidazo[1,2-a]pyrazin-3(7H)-one] | 0.88
O=c1c(Cc2ccco2)nc2c(Cc3ccccc3)[nH]c(-c3cccc(O)c3F)cn1-2 [JRW-1404, 8-benzyl-6-(2-fluoro-3-hydroxyphenyl)-2-(furan-2-ylmethyl)imidazo[1,2-a]pyrazin-3(7H)-one] | 1.2
Cc1cccc(Cc2[nH]c(-c3cccc(O)c3)cn3c(=O)c(Cc4ccco4)nc2-3)c1 [JRW-1368, 2-(furan-2-ylmethyl)-6-(3-hydroxyphenyl)-8-(3-methylbenzyl)imidazo[1,2-a]pyrazin-3(7H)-one] | 0.032
O=c1c(Cc2ccco2)nc2c(Cc3ccccc3)[nH]c(-c3ccccc3)cn1-2 [Furimazine, 8-benzyl-2-(furan-2-ylmethyl)-6-phenylimidazo[1,2-a]pyrazin-3(7H)-one, reference compound] | 1
COCc1cccc(Cc2nc3c(Cc4ccccc4)[nH]c(-c4cccc(O)c4)cn-3c2=O)c1 [JRW-0373, 8-benzyl-6-(3-hydroxyphenyl)-2-(3-(methoxymethyl)benzyl)imidazo[1,2-a]pyrazin-3(7H)-one] | 0.27
O=c1c(Cc2ccco2)nc2c(Cc3ccccc3F)[nH]c(-c3cccc(O)c3F)cn1-2 [JRW-1668, 6-(2-fluoro-3-hydroxyphenyl)-8-(2-fluorobenzyl)-2-(furan-2-ylmethyl)imidazo[1,2-a]pyrazin-3(7H)-one] | 1.5
O=c1c(Cc2cccs2)nc2c(Cc3ccccc3)[nH]c(-c3cccc(O)c3F)cn1-2 [JRW-1624, 8-benzyl-6-(2-fluoro-3-hydroxyphenyl)-2-(thiophen-2-ylmethyl)imidazo[1,2-a]pyrazin-3(7H)-one] | 0.84
Nc1cccc(-c2cn3c(=O)c(Cc4ccc(C(F)(F)F)o4)nc-3c(Cc3ccccc3)[nH]2)c1F [JRW-1610, 6-(3-amino-2-fluorophenyl)-8-benzyl-2-((5-(trifluoromethyl)furan-2-yl)methyl)imidazo[1,2-a]pyrazin-3(7H)-one] | 0.71
Nc1cccc(-c2cn3c(=O)c(Cc4ccco4)nc-3c(Cc3ccccc3F)[nH]2)c1F [JRW-1667, 6-(3-amino-2-fluorophenyl)-8-(2-fluorobenzyl)-2-(furan-2-ylmethyl)imidazo[1,2-a]pyrazin-3(7H)-one] | 2.1
Cc1c(O)cccc1-c1cn2c(=O)c(Cc3ccco3)nc-2c(Cc2ccccc2)[nH]1 [JRW-1645, 8-benzyl-2-(furan-2-ylmethyl)-6-(3-hydroxy-2-methylphenyl)imidazo[1,2-a]pyrazin-3(7H)-one] | 0.07
O=c1c(Cc2ccco2)nc2c(Cc3ccccc3)[nH]c(-c3cccc(O)c3Cl)cn1-2 [JRW-1488, 8-benzyl-6-(2-chloro-3-hydroxyphenyl)-2-(furan-2-ylmethyl)imidazo[1,2-a]pyrazin-3(7H)-one] | 0.31
Cc1ccc(Cc2nc3c(Cc4ccccc4)[nH]c(-c4cccc(O)c4)cn-3c2=O)o1 [JRW-1056, 8-benzyl-6-(3-hydroxyphenyl)-2-((5-methylfuran-2-yl)methyl)imidazo[1,2-a]pyrazin-3(7H)-one] | 1.1
COCc1cccc(Cc2nc3c(Cc4ccccc4)[nH]c(-c4cccc(O[Si](C)(C)C(C)(C)C)c4)cn-3c2=O)c1 [JRW-0372, 8-benzyl-6-(3-((tert-butyldimethylsilyl)oxy)phenyl)-2-(3-(methoxymethyl)benzyl)imidazo[1,2-a]pyrazin-3(7H)-one] | 0.00033
O=c1c(Cc2ccco2)nc2c(Cc3ccccc3)[nH]c(-c3cc(O)ccc3F)cn1-2 [JRW-1405, 8-benzyl-6-(2-fluoro-5-hydroxyphenyl)-2-(furan-2-ylmethyl)imidazo[1,2-a]pyrazin-3(7H)-one] | 1.0
Nc1cccc(-c2cn3c(=O)c(Cc4ccco4)nc-3c(Cc3c(F)cccc3F)[nH]2)c1F [JRW-1747, 6-(3-amino-2-fluorophenyl)-8-(2,6-difluorobenzyl)-2-(furan-2-ylmethyl)imidazo[1,2-a]pyrazin-3(7H)-one] | 2.1
O=c1c(Cc2ccc(C(F)(F)F)o2)nc2c(Cc3ccccc3)[nH]c(-c3cccc(O)c3F)cn1-2 [JRW-1619, 8-benzyl-6-(2-fluoro-3-hydroxyphenyl)-2-((5-(trifluoromethyl)furan-2-yl)methyl)imidazo[1,2-a]pyrazin-3(7H)-one] | 0.85
Nc1cc(F)cc(-c2cn3c(=O)c(Cc4ccco4)nc-3c(Cc3ccccc3)[nH]2)c1 [JRW-1535, 6-(3-amino-5-fluorophenyl)-8-benzyl-2-(furan-2-ylmethyl)imidazo[1,2-a]pyrazin-3(7H)-one] | 0.73
